How the values were obtained:
[1] = test system: U-87 human glioblastoma cells; assay: Cell survival of U-87 human glioblastoma cells after treatment; format: cell-based; conditions: 24 h exposure, concentration-dependent survival (FIG. 24)
Method: U-87 MG cell line is an epithelial cell line derived from a grade IV glioblastoma resected from the brain of a patient. U-87 cells were plated in four flasks for each isomer and allowed to attach for 24 h. The compounds 6b fast and 6b slow were added to U-87 cells at […] (37 kBq/mL). Cells were incubated with the radioactive compounds for 24 h and the radioactive medium was removed. Cells were washed twice with fresh, nonradioactive medium and trypsinized. After appropriate dilutions in full growth medium, cells were re-plated in fresh medium (n=4 per compound). After 96 hours in culture, cells were harvested and their numbers counted using a Cellometer® disposable cell counting chamber (Nexcelom Bioscience, Lawrence, Mass.). Four flasks used as controls were sham-treated with a volume of PBS used to dissolve radioactive compounds. The control flasks were processed as described for the radioactive compound-treated cells. […] The surviving fraction is calculated as the ratio of cell number recovered from flasks treated with radioactive compounds to the cell number recovered from the control flasks. Averages and standard deviations are shown. The cell survival was also measured in a 96-well and 6-well formats.
U-87 cells were plated in 6-well plates from suspension. The compounds 6b fast and 6b slow were added with media on day 0. […] The OD was read at 560 nm. […]

[2] = test system: U-87 human glioblastoma cells; assay: DNA uptake and subcellular distribution of radioactivity in U-87 cells; format: cell-based
Method: U-87 cells were plated in T75 flasks and allowed to attach for 24 h. Compounds 6b-fast and 6b slow were added to cells at 1 μCi/mL (37 kBq/mL) and 5 μCi/mL (185 kBq/mL). Cells were incubated with radioactive compounds from 24 h to 120 h. The radioactive medium was removed. Cells were washed twice with fresh, nonradioactive medium. Cells were trypsinized and their numbers and radioactive content determined. A similar study was also conducted in 96- and 24-well formats, which allowed more rapid analyses of several concentrations of 6b. Harvested cells were processed using NE-PER nuclear and cytoplasmic extraction reagents (Thermo Fisher Scientific, Rockford, Ill.). […] U-87 cells plated in T75 flasks and allowed to grow for 24 h. Cells were treated with […] 6b fast and 6b slow for 40 h at which time the radioactive medium was removed and replaced with fresh media. Cells were grown in fresh medium for additional 24 h and 72 h. Cells were trypsinized and DNA was extracted using the Qiagen method (Qiagen Genomic-tip 20/G; Qiagen, Valencia, Calif.).

[3] = test system: U-87 human glioblastoma cells; assay: Concentration-dependent uptake by U-87 cells; format: cell-based; conditions: 40 h exposure, 96-well plates
Method: U-87 cells were plated in 96-well plates and allowed to attach for ˜48 hours. The used medium was replaced with 6b-containing medium and the cells were grown in the presence of radioactivity for 40 h. The radioactive media was removed after 40 h of exposure. Aliquots (0.05 mL) of the radioactive medium were counted in a gamma counter. Cell monolayers were washed with PBS, PBS-methanol (2 min), and fixed in methanol (10 min). Fixed cells were allowed to dry and were stained with 0.25% crystal violet (10 min). To each well 0.1 mL ethanol was added (2 h) followed by 0.1 mL 3.5 mM SDS in water. OD at 560 nm was read. Solubilized cells were transferred into gamma counter tubes to determine their radioactive content. The plate was divided into individual wells and these were also added to the gamma counter tubes. FIG. 27 illustrates the concentration-dependent uptake.

advanced OVCAR-3 tumors = assay: Therapy with fractionated doses in advanced OVCAR-3 tumors; format: in vivo, athymic NCr-nu/nu mice; conditions: IP fractionated doses
Method: Female athymic NCr-nu/nu mice were received from NCI-Frederic (MD, USA). Identification transponders were implanted SQ in mice acclimated for one week. When mice reached the age of 8-weeks, all mice received IP implant of 5.6×10^8 OVCAR-3 cells/mouse in 0.5 mL media without serum. This cancer cell load is double the size of implant described in Example 6 and allows for a rapid development of the advanced stages of the tumor. One weeks later mice were separated into […] via a lottery as follows: mice in the control group were left untreated; mice the vehicle group received 0.3 mL vehicle (PBS containing 0.5% albumin and 5% DMSO); the remaining mice in groups ×1, ×2, and ×3 received an IP injection of 8b-slow in 0.3 mL vehicle; two weeks later mice in groups ×2 and ×3 received an IP injection of 8b-slow in 0.3 mL vehicle; and four weeks after the first dose mice in group ×3 received an IP injection of 8b-slow in 0.3 mL vehicle. Using the same schedule, mice in the vehicle group were given IP injections of 0.3 mL vehicle. The average total administered doses were as follows: group ×1: 0.5 mCi […]; group ×2: 1 mCi (37 MBq), and group ×3: 1.5 mCi (55.5 MBq). All mice were killed six weeks after the administration of the first dose. […] The data analyses confirmed that the observed differences are statistically significant. […]

[4] = test system: subcutaneous LS174T tumors (human colorectal adenocarcinoma); assay: Biodistribution, clearance and planar imaging in athymic mice bearing subcutaneous LS174T xenografts; format: in vivo, athymic NCr-nu/nu mice; conditions: IV administration
Method: The in vivo properties and pharmacology of several compounds of the present invention were initially tested in athymic mice bearing subcutaneous LS174T tumors (human colorectal adenocarcinoma), which have several desirable properties such as rapid growth when implanted subcutaneously (SQ), good vascularization and the availability of considerable historical data for the parent compound IUdR. The clearance rates from blood, tumor, and associated organs were analyzed to determine the structure-pharmacokinetics relationship. The first compounds studied were 6b-fast and 6b-slow. Four-to-six-weeks old female athymic NCr-nu/nu mice (NCI-Frederic, Md., USA) were allowed to acclimate in Applicants' facility after delivery for no less than 5 days. All protocols involving animals were approved by the University of Nebraska Institutional Animal Care and Use Committee. Mice were housed in microisolator cages with free access to sterilized standard rodent diet and water. LS174T cells in 0.1 mL of serum-free medium were implanted SQ at 5×10^6 cells/mouse. One week later identification transponders were implanted, also SQ. Body weights and tumor sizes were monitored twice weekly, and approximately 10 days after the cell implant, mice were randomized for biodistribution studies.
Each of the two isomers, 6b-fast and 6b-slow, was tested independently in separate groups of mice. The comparison to the parent compound, IUdR, was made by co-injecting ^131IUdR with a particular ^125I-labeled diastereomer. Compounds were administered intravenously (IV) via a tail vein.
Biodistribution was conducted at 1 h, 4 h, 24 and 48 h after the administration of radiolabeled compounds (n=6 per time point). The injection doses contained approximately 1 μCi (37 kBq) ^131IUdR and 5 μCi (185 kBq) ^125I-labeled 6b-fast or 6b-slow dissolved in 0.2 mL phosphate buffered saline containing 0.1% bovine serum albumin, pH 7.2 (PBS). All syringes were weighted after loading with the compound solution and immediately after the injection to determine the weight of the injected dose. Triplicate standards of the injected dose were prepared in PBS and counted in a gamma counter just before the beginning of the experiment. The radioactive content of these standards was also determined alongside all tissues after the necropsy to correct the tissue uptake for the decay of the radioisotope. Blood, liver, spleen, heart, lungs, kidneys, brain, tumor and tail were collected during necropsy. Tissues were rinsed in ice-cold saline, patted dry and weighed. The tail was collected to validate the quality of the IV injections.
FIG. 7 presents whole body images for a typical time course distribution (24 h, 48 h, and 72 h) of 6b administered as a diastereomeric mixture in LS174T-bearing athymic mice. The images were acquired 1, 2, and 3 days after the administration of the compound. […] It is also apparent that based on pharmacokinetics, the use of these compounds can be tailored to a specific malignancy and its anatomical location.

[5] = test system: early stage OVCAR-3 tumors; assay: Dose-response therapy in early stage OVCAR-3 tumors; format: in vivo, athymic NCr-nu/nu mice
Method: Female athymic NCr-nu/nu mice were received from NCI-Frederick (MD, USA) and were allowed to acclimate in Applicants' facilities until the age of 8 weeks. After this period of acclimation, 2.5×10^8 OVCAR-3 cells were implanted into 36 mice. Four days later, each mouse received SQ transponders (micro-identification chips) and mice were divided into three groups at random: control mice receiving sham IP injections of 0.6 mL vehicle (n=12); mice in the high dose group were treated with one IP dose of 0.7 mCi (26 MBq) 8b slow in 0.6 mL vehicle (n=12); and mice the low dose group were treated with one IP dose of 0.29 mCi (10.7 MBq) 8b slow in 0.6 mL vehicle (n=12).
Five weeks after treatment, all mice were sacrificed and full necropsy was performed. A single dose of 8b slow given at the early stages of the disease reduces the tumor burden by […]. The response of solid tumors seems better than the cells in ascites, […] in the weight of the solid tumor deposits (FIG. 17). The uptake and retention of radioactivity was measured in several tissues and in tumor. The radioactivity levels in blood are ˜30 times lower than in the tumor cells in ascites and ˜10 times lower than in the solid tumors.

[6] = five weeks after single IP dose
[7] = single IP dose, five weeks after treatment

| Compound | cytotoxicity to U-87 cells, slow versus fast isomer [1] | cellular and nuclear uptake, slow versus fast isomer [2] | uptake by U-87 cells compared to 6b fast [3] | relationship between tumor size and total administered doses (advanced OVCAR-3 tumors; total 0.5, 1, 1.5 mCi, six weeks after first dose) | hematological adverse effects (hemoglobin and hematocrit) (advanced OVCAR-3 tumors; total 0.5-1.5 mCi) | clearance from blood and normal tissues [4] | liver uptake [5, 6] [% ID/g] | radioactivity level in blood, times lower than in the solid tumors [5, 6] [times] | radioactivity level in blood, times lower than in the tumor cells in ascites [5, 6] [times] | adverse effects by hemoglobin and hematocrit levels ([5]; single IP dose 0.29 or 0.7 mCi) | reduction in the weight of the solid tumor deposits [5, 7] [%] | reduction of tumor burden [5, 7] [%] |
| --- | --- | --- | --- | --- | --- | --- | --- | --- | --- | --- | --- | --- |
| O=c1[nH]c(=O)n([C@H]2C[C@H](O)[C@@H](COP3(=O)OCc4ccccc4O3)O2)cc1[125I] (stereo partly drawn) [6b slow, 5-[^125I]-Iodo-5′-O-cycloSaligenyl-2′-deoxyuridine Monophosphate] | more cytotoxic to U-87 cells compared to the 6b fast isomer | greater overall cellular and nuclear uptake when compared to 6b fast | almost a two-fold greater uptake | – | – | – | – | – | – | – | – | – |
| CC(C)(C)c1cc(C(C)(C)C)c2c(c1F)COP(=O)(OC[C@H]1O[C@@H](n3cc([125I])c(=O)[nH]c3=O)C[C@@H]1O)O2 (stereo partly drawn) [8b slow, 5-[^125I]-Iodo-5′-O-[cyclo-3,5-di-(tert-butyl)-6-fluoroSaligenyl]-2′-deoxyuridine Monophosphate] | – | – | – | unambiguous dose-response relationship | do not produce any significant hematological adverse effects | rapid clearance from blood and normal tissues | < 0.003 | ~10 | ~30 | not causing noticeable adverse effects | > 300 | > 230 |
